Test results published in the NIST ThermoML archive (doi:10.1016/j.jct.2016.10.023).

Assay: xn = mol fraction of the nth substance listed
Conditions: Constant-volume piezometry

CCCCC [pentane] + CCCO
Conditions | mass density [kg/m3]
503.15 K, 5980 kPa, Fluid (supercritical or subcritical phases), x1 = 0.8 | 288.67
503.15 K, 6051 kPa, Fluid (supercritical or subcritical phases), x1 = 0.9 | 301.99
503.15 K, 6149 kPa, Fluid (supercritical or subcritical phases), x1 = 0.8 | 299.5
503.15 K, 6295 kPa, Fluid (supercritical or subcritical phases), x1 = 0.9 | 312.64
503.15 K, 6413 kPa, Liquid, x1 = 0.2 | 470.91
503.15 K, 6490 kPa, Fluid (supercritical or subcritical phases), x1 = 0.5 | 373.27
503.15 K, 6551 kPa, Fluid (supercritical or subcritical phases), x1 = 0.8 | 315.69
503.15 K, 6924 kPa, Fluid (supercritical or subcritical phases), x1 = 0.9 | 334.38
503.15 K, 7052 kPa, Fluid (supercritical or subcritical phases), x1 = 0.8 | 334.2
503.15 K, 7423 kPa, Fluid (supercritical or subcritical phases), x1 = 0.8 | 345.74
503.15 K, 7481 kPa, Fluid (supercritical or subcritical phases), x1 = 0.5 | 398.56
503.15 K, 7825 kPa, Fluid (supercritical or subcritical phases), x1 = 0.9 | 354.5
503.15 K, 8266 kPa, Fluid (supercritical or subcritical phases), x1 = 0.8 | 362.32
503.15 K, 8559 kPa, Fluid (supercritical or subcritical phases), x1 = 0.5 | 417.68
503.15 K, 10489 kPa, Fluid (supercritical or subcritical phases), x1 = 0.5 | 441.45
503.15 K, 10609 kPa, Liquid, x1 = 0.2 | 510.19
503.15 K, 11537 kPa, Fluid (supercritical or subcritical phases), x1 = 0.5 | 451.78
503.15 K, 12022 kPa, Fluid (supercritical or subcritical phases), x1 = 0.9 | 407.75
503.15 K, 12689 kPa, Fluid (supercritical or subcritical phases), x1 = 0.8 | 418.68
503.15 K, 14223 kPa, Fluid (supercritical or subcritical phases), x1 = 0.5 | 468.71
503.15 K, 18302 kPa, Liquid, x1 = 0.2 | 547.72
503.15 K, 21559 kPa, Fluid (supercritical or subcritical phases), x1 = 0.8 | 467.26
503.15 K, 26707 kPa, Fluid (supercritical or subcritical phases), x1 = 0.5 | 519.99
503.15 K, 30356 kPa, Fluid (supercritical or subcritical phases), x1 = 0.8 | 496.72
503.15 K, 30587 kPa, Liquid, x1 = 0.2 | 582.08
503.15 K, 37782 kPa, Liquid, x1 = 0.2 | 595.68
503.15 K, 41722 kPa, Fluid (supercritical or subcritical phases), x1 = 0.8 | 521.26
504.15 K, 4315 kPa, Liquid, x1 = 0.2 | 419.14
508.15 K, 4020 kPa, Gas, x1 = 0.2 | 114.44
508.15 K, 4961 kPa, Liquid, x1 = 0.2 | 419.05
510.15 K, 4548 kPa, Liquid, x1 = 0.2 | 383.7
511.15 K, 4773 kPa, Liquid, x1 = 0.2 | 391.53
513.15 K, 933 kPa, Gas, x1 = 0.5 | 15.53
513.15 K, 1283 kPa, Gas, x1 = 0.8 | 22.54
513.15 K, 1508 kPa, Gas, x1 = 0.2 | 24.94
513.15 K, 1686 kPa, Gas, x1 = 0.5 | 30
513.15 K, 1923 kPa, Gas, x1 = 0.8 | 36.71
513.15 K, 2226 kPa, Gas, x1 = 0.5 | 40.51
513.15 K, 2615 kPa, Gas, x1 = 0.5 | 51.12
513.15 K, 2796 kPa, Gas, x1 = 0.8 | 58.44
513.15 K, 2974 kPa, Gas, x1 = 0.2 | 53.03
513.15 K, 3284 kPa, Gas, x1 = 0.5 | 67.55
513.15 K, 3295 kPa, Gas, x1 = 0.8 | 73.83
513.15 K, 3462 kPa, Gas, x1 = 0.5 | 72.63
513.15 K, 3488 kPa, Gas, x1 = 0.9 | 83.42
513.15 K, 3816 kPa, Gas, x1 = 0.2 | 91.46
513.15 K, 3844 kPa, Gas, x1 = 0.5 | 88.95
513.15 K, 4033 kPa, Gas, x1 = 0.5 | 95.89
513.15 K, 4156 kPa, Fluid (supercritical or subcritical phases), x1 = 0.8 | 106.45
513.15 K, 4165 kPa, Gas, x1 = 0.2 | 114.41
513.15 K, 4349 kPa, Fluid (supercritical or subcritical phases), x1 = 0.9 | 123.41
513.15 K, 4538 kPa, Fluid (supercritical or subcritical phases), x1 = 0.9 | 134.18
513.15 K, 4567 kPa, Fluid (supercritical or subcritical phases), x1 = 0.5 | 121.95
513.15 K, 4703 kPa, Liquid, x1 = 0.2 | 350.76
513.15 K, 4837 kPa, Fluid (supercritical or subcritical phases), x1 = 0.5 | 144.18
513.15 K, 4850 kPa, Fluid (supercritical or subcritical phases), x1 = 0.8 | 140.37
513.15 K, 4865 kPa, Liquid, x1 = 0.2 | 378.83
513.15 K, 4965 kPa, Fluid (supercritical or subcritical phases), x1 = 0.9 | 164.03
513.15 K, 4968 kPa, Fluid (supercritical or subcritical phases), x1 = 0.5 | 154.56
513.15 K, 4968 kPa, Liquid, x1 = 0.2 | 383.64
513.15 K, 5032 kPa, Fluid (supercritical or subcritical phases), x1 = 0.8 | 156.12
513.15 K, 5068 kPa, Fluid (supercritical or subcritical phases), x1 = 0.2 | 391.49
513.15 K, 5068 kPa, Liquid, x1 = 0.2 | 391.49
513.15 K, 5086 kPa, Fluid (supercritical or subcritical phases), x1 = 0.5 | 165.22
513.15 K, 5197 kPa, Fluid (supercritical or subcritical phases), x1 = 0.8 | 169.87
513.15 K, 5255 kPa, Fluid (supercritical or subcritical phases), x1 = 0.5 | 182.94
513.15 K, 5265 kPa, Fluid (supercritical or subcritical phases), x1 = 0.8 | 176.11
513.15 K, 5295 kPa, Fluid (supercritical or subcritical phases), x1 = 0.9 | 189.54
513.15 K, 5344 kPa, Fluid (supercritical or subcritical phases), x1 = 0.8 | 180.91
513.15 K, 5373 kPa, Fluid (supercritical or subcritical phases), x1 = 0.5 | 200.49
513.15 K, 5432 kPa, Fluid (supercritical or subcritical phases), x1 = 0.5 | 210.33
513.15 K, 5454 kPa, Fluid (supercritical or subcritical phases), x1 = 0.9 | 202.47
513.15 K, 5473 kPa, Fluid (supercritical or subcritical phases), x1 = 0.8 | 193.25
513.15 K, 5506 kPa, Fluid (supercritical or subcritical phases), x1 = 0.5 | 224.16
513.15 K, 5598 kPa, Fluid (supercritical or subcritical phases), x1 = 0.5 | 241.62
513.15 K, 5618 kPa, Fluid (supercritical or subcritical phases), x1 = 0.5 | 250.82
513.15 K, 5669 kPa, Fluid (supercritical or subcritical phases), x1 = 0.9 | 220.79
513.15 K, 5677 kPa, Fluid (supercritical or subcritical phases), x1 = 0.5 | 259.87
513.15 K, 5710 kPa, Fluid (supercritical or subcritical phases), x1 = 0.8 | 213.96
513.15 K, 5746 kPa, Fluid (supercritical or subcritical phases), x1 = 0.5 | 270.69
513.15 K, 5776 kPa, Fluid (supercritical or subcritical phases), x1 = 0.8 | 219.73
513.15 K, 5792 kPa, Liquid, x1 = 0.2 | 418.94
513.15 K, 5837 kPa, Fluid (supercritical or subcritical phases), x1 = 0.9 | 233.18
513.15 K, 5858 kPa, Fluid (supercritical or subcritical phases), x1 = 0.5 | 282.52
513.15 K, 5880 kPa, Fluid (supercritical or subcritical phases), x1 = 0.9 | 236.64
513.15 K, 5929 kPa, Fluid (supercritical or subcritical phases), x1 = 0.9 | 241.05
513.15 K, 5974 kPa, Fluid (supercritical or subcritical phases), x1 = 0.9 | 244.36
513.15 K, 5983 kPa, Fluid (supercritical or subcritical phases), x1 = 0.8 | 234.82
513.15 K, 6090 kPa, Fluid (supercritical or subcritical phases), x1 = 0.5 | 298.82
513.15 K, 6119 kPa, Fluid (supercritical or subcritical phases), x1 = 0.8 | 245.46
513.15 K, 6286 kPa, Fluid (supercritical or subcritical phases), x1 = 0.8 | 258.7
513.15 K, 6470 kPa, Fluid (supercritical or subcritical phases), x1 = 0.5 | 320.16
513.15 K, 6531 kPa, Fluid (supercritical or subcritical phases), x1 = 0.8 | 272.67
513.15 K, 6531 kPa, Fluid (supercritical or subcritical phases), x1 = 0.9 | 282.15
513.15 K, 6559 kPa, Fluid (supercritical or subcritical phases), x1 = 0.5 | 325.44
513.15 K, 6787 kPa, Fluid (supercritical or subcritical phases), x1 = 0.8 | 288.53
513.15 K, 6884 kPa, Fluid (supercritical or subcritical phases), x1 = 0.9 | 301.84
513.15 K, 6962 kPa, Fluid (supercritical or subcritical phases), x1 = 0.5 | 344.73
513.15 K, 7033 kPa, Fluid (supercritical or subcritical phases), x1 = 0.8 | 299.35
513.15 K, 7191 kPa, Fluid (supercritical or subcritical phases), x1 = 0.9 | 312.49
513.15 K, 7508 kPa, Fluid (supercritical or subcritical phases), x1 = 0.8 | 315.53
513.15 K, 7785 kPa, Fluid (supercritical or subcritical phases), x1 = 0.5 | 373.08
513.15 K, 7943 kPa, Fluid (supercritical or subcritical phases), x1 = 0.9 | 334.21
513.15 K, 8099 kPa, Fluid (supercritical or subcritical phases), x1 = 0.8 | 334.03
513.15 K, 8570 kPa, Fluid (supercritical or subcritical phases), x1 = 0.8 | 345.56
513.15 K, 8766 kPa, Liquid, x1 = 0.2 | 470.65
513.15 K, 8986 kPa, Fluid (supercritical or subcritical phases), x1 = 0.5 | 398.35
513.15 K, 9031 kPa, Fluid (supercritical or subcritical phases), x1 = 0.9 | 354.32
513.15 K, 9551 kPa, Fluid (supercritical or subcritical phases), x1 = 0.8 | 362.13
513.15 K, 10333 kPa, Fluid (supercritical or subcritical phases), x1 = 0.5 | 417.46
513.15 K, 12509 kPa, Fluid (supercritical or subcritical phases), x1 = 0.5 | 441.21
513.15 K, 13550 kPa, Fluid (supercritical or subcritical phases), x1 = 0.2 | 509.9
513.15 K, 13550 kPa, Liquid, x1 = 0.2 | 509.9
513.15 K, 13634 kPa, Fluid (supercritical or subcritical phases), x1 = 0.5 | 451.54
513.15 K, 13786 kPa, Fluid (supercritical or subcritical phases), x1 = 0.9 | 407.53
513.15 K, 14551 kPa, Fluid (supercritical or subcritical phases), x1 = 0.8 | 418.46
513.15 K, 16655 kPa, Fluid (supercritical or subcritical phases), x1 = 0.5 | 468.45
513.15 K, 22117 kPa, Liquid, x1 = 0.2 | 547.38
513.15 K, 24001 kPa, Fluid (supercritical or subcritical phases), x1 = 0.8 | 467
513.15 K, 30101 kPa, Fluid (supercritical or subcritical phases), x1 = 0.5 | 519.68
513.15 K, 33469 kPa, Fluid (supercritical or subcritical phases), x1 = 0.8 | 496.43
513.15 K, 35193 kPa, Liquid, x1 = 0.2 | 581.71
513.15 K, 42801 kPa, Liquid, x1 = 0.2 | 595.3
514.15 K, 4473 kPa, Gas, x1 = 0.2 | 150.41
514.15 K, 4778 kPa, Liquid, x1 = 0.2 | 341.42
514.15 K, 4795 kPa, Liquid, x1 = 0.2 | 350.74
515.15 K, 4522 kPa, Gas, x1 = 0.2 | 150.4
515.15 K, 4645 kPa, Fluid (supercritical or subcritical phases), x1 = 0.2 | 175.68
515.15 K, 4818 kPa, Fluid (supercritical or subcritical phases), x1 = 0.2 | 318.9
516.15 K, 4838 kPa, Fluid (supercritical or subcritical phases), x1 = 0.2 | 272.45
516.15 K, 4852 kPa, Fluid (supercritical or subcritical phases), x1 = 0.2 | 290.64
516.15 K, 4872 kPa, Fluid (supercritical or subcritical phases), x1 = 0.2 | 306.93
516.15 K, 4877 kPa, Fluid (supercritical or subcritical phases), x1 = 0.2 | 311.17
516.15 K, 4909 kPa, Fluid (supercritical or subcritical phases), x1 = 0.2 | 318.89
517.15 K, 4912 kPa, Fluid (supercritical or subcritical phases), x1 = 0.2 | 272.44
517.15 K, 4958 kPa, Fluid (supercritical or subcritical phases), x1 = 0.2 | 306.92

Liquid, x1 = 0.2
Conditions | mass density [kg/m3]
508.65 K | 391.58
509.65 K | 383.71
510.35 K | 378.89
512.85 K | 350.77
513.45 K | 344.22
513.65 K | 341.43
514.95 K | 318.91
515.15 K | 311.18
515.55 K | 306.94
515.95 K | 290.64
516.15 K | 272.45
